Measurements as given in patent publication US8877748B2, “Heterocyclic fused anthraquinone derivatives, manufacturing method and pharmaceutical composition using thereof” (National Defense Medical Center, priority 2012, dated 2014).

Columns and labels:
[1] = tested on: PC-3 prostate cancer cell line; test: SRB assay cell viability, PC-3 prostate cancer cell line; format: cell-based, human; details: Homo sapiens, PC-3 prostate cancer cell line, Table II prints no unit, μM printed, read-out: SRB assay: 50% inhibition of cancer cell proliferation of sample concentration (IC50) of PC-3 prostate cancer cell line
[2] = tested on: CCRF-CEM; test: NCI screening platform one-dose single concentration screening, leukemia CCRF-CEM; format: cell-based, human; details: 10 μM
[3] = tested on: HL-60, TB; test: NCI one-dose screening, leukemia HL-60, TB; format: cell-based, human; details: 10 μM
[4] = tested on: MOLT-4; test: NCI one-dose screening, leukemia MOLT-4; format: cell-based, human; details: 10 μM
[5] = tested on: SR; test: NCI one-dose screening, leukemia SR; format: cell-based, human; details: 10 μM
[6] = tested on: PRMI-8226 cell line; test: NCI one-dose screening, leukemia PRMI-8226; format: cell-based, human; details: 10 μM
[7] = tested on: K562cell line; test: NCI one-dose screening, leukemia K562; format: cell-based, human; details: 10 μM
[8] = tested on: EKVX; test: NCI one-dose screening, non-small cell lung cancer EKVX; format: cell-based, human; details: 10 μM
[9] = tested on: HOP-62; test: NCI one-dose screening, non-small cell lung cancer HOP-62; format: cell-based, human; details: 10 μM
[10] = tested on: HOP-92; test: NCI one-dose screening, non-small cell lung cancer HOP-92; format: cell-based, human; details: 10 μM
[11] = tested on: NCI-H226; test: NCI one-dose screening, non-small cell lung cancer NCI-H226; format: cell-based, human; details: 10 μM
[12] = tested on: NCI-H23; test: NCI one-dose screening, non-small cell lung cancer NCI-H23; format: cell-based, human; details: 10 μM
[13] = tested on: NCI-H322M; test: NCI one-dose screening, non-small cell lung cancer NCI-H322M; format: cell-based, human; details: 10 μM; Non-small cell lung cancer
[14] = tested on: NCI-H460; test: NCI one-dose screening, non-small cell lung cancer NCI-H460; format: cell-based, human; details: 10 μM
[15] = tested on: NCI-H522; test: NCI one-dose screening, non-small cell lung cancer NCI-H522; format: cell-based, human; details: 10 μM
[16] = tested on: A549/ATCC; test: NCI one-dose screening, non-small cell lung cancer A549/ATCC; format: cell-based, human; details: 10 μM
[17] = tested on: COLO 205; test: NCI one-dose screening, colon cancer COLO 205; format: cell-based, human; details: 10 μM
[18] = tested on: HCC-2998; test: NCI one-dose screening, colon cancer HCC-2998; format: cell-based, human; details: 10 μM
[19] = tested on: HCT-116; test: NCI one-dose screening, colon cancer HCT-116; format: cell-based, human; details: 10 μM
[20] = tested on: HCT-15; test: NCI one-dose screening, colon cancer HCT-15; format: cell-based, human; details: 10 μM
[21] = tested on: KM12; test: NCI one-dose screening, colon cancer KM12; format: cell-based, human; details: 10 μM
[22] = tested on: SF-268; test: NCI one-dose screening, CNS cancer SF-268; format: cell-based, human; details: 10 μM
[23] = tested on: SF-295; test: NCI one-dose screening, CNS cancer SF-295; format: cell-based, human; details: 10 μM
[24] = tested on: SF-539; test: NCI one-dose screening, CNS cancer SF-539; format: cell-based, human; details: 10 μM
[25] = tested on: SNB-19; test: NCI one-dose screening, CNS cancer SNB-19; format: cell-based, human; details: 10 μM
[26] = tested on: SNB-75; test: NCI one-dose screening, CNS cancer SNB-75; format: cell-based, human; details: 10 μM
[27] = tested on: U251; test: NCI one-dose screening, CNS cancer U251; format: cell-based, human; details: 10 μM
[28] = tested on: LOX IMVI; test: NCI one-dose screening, melanoma LOX IMVI; format: cell-based, human; details: 10 μM
[29] = tested on: MALME-3M; test: NCI one-dose screening, melanoma MALME-3M; format: cell-based, human; details: 10 μM
[30] = tested on: M14; test: NCI one-dose screening, melanoma M14; format: cell-based, human; details: 10 μM
[31] = tested on: UACC-62; test: NCI one-dose screening, melanoma UACC-62; format: cell-based, human; details: 10 μM
[32] = tested on: UACC-257; test: NCI one-dose screening, melanoma UACC-257; format: cell-based, human; details: 10 μM
[33] = tested on: SK-MEL-2; test: NCI one-dose screening, melanoma SK-MEL-2; format: cell-based, human; details: 10 μM
[34] = tested on: SK-MEL-28; test: NCI one-dose screening, melanoma SK-MEL-28; format: cell-based, human; details: 10 μM
[35] = tested on: SK-MEL-5; test: NCI one-dose screening, melanoma SK-MEL-5; format: cell-based, human; details: 10 μM
[36] = tested on: IGROV1; test: NCI one-dose screening, ovarian cancer IGROV1; format: cell-based, human; details: 10 μM
[37] = tested on: OVCAR-3; test: NCI one-dose screening, ovarian cancer OVCAR-3; format: cell-based, human; details: 10 μM
[38] = tested on: OVCAR-4; test: NCI one-dose screening, ovarian cancer OVCAR-4; format: cell-based, human; details: 10 μM
[39] = tested on: OVCAR-8; test: NCI one-dose screening, ovarian cancer OVCAR-8; format: cell-based, human; details: 10 μM
[40] = tested on: SK-OV-3; test: NCI one-dose screening, ovarian cancer SK-OV-3; format: cell-based, human; details: 10 μM
[41] = tested on: 786-O; test: NCI one-dose screening, renal cancer 786-O; format: cell-based, human; details: 10 μM
[42] = tested on: CAKI-1; test: NCI one-dose screening, renal cancer CAKI-1; format: cell-based, human; details: 10 μM
[43] = NCI one-dose screening, renal cancer A489; format: cell-based, human; details: 10 μM
[44] = tested on: SN12C; test: NCI one-dose screening, renal cancer SN12C; format: cell-based, human; details: 10 μM
[45] = tested on: TK-10; test: NCI one-dose screening, renal cancer TK-10; format: cell-based, human; details: 10 μM
[46] = tested on: UO-31; test: NCI one-dose screening, renal cancer UO-31; format: cell-based, human; details: 10 μM
[47] = tested on: RXF, 393; test: NCI one-dose screening, renal cancer RXF, 393; format: cell-based, human; details: 10 μM
[48] = tested on: DU145; test: NCI one-dose screening, prostate cancer DU145; format: cell-based, human; details: 10 μM
[49] = tested on: PC-3; test: NCI one-dose screening, prostate cancer PC-3; format: cell-based, human; details: 10 μM
[50] = tested on: MCF7; test: NCI one-dose screening, breast cancer MCF7; format: cell-based, human; details: 10 μM
[51] = tested on: HS 578-T; test: NCI one-dose screening, breast cancer HS 578-T; format: cell-based, human; details: 10 μM; Breast cancer
[52] = tested on: MDA-MB-231/ATCC; test: NCI one-dose screening, breast cancer MDA-MB-231/ATCC; format: cell-based, human; details: 10 μM
[53] = tested on: MDA-MB-468; test: NCI one-dose screening, breast cancer MDA-MB-468; format: cell-based, human; details: 10 μM
[54] = tested on: NCl/ADR-RES; test: NCI one-dose screening, breast cancer NCl/ADR-RES; format: cell-based, human; details: 10 μM; listed under Ovarian cancer
[55] = tested on: BT-549; test: NCI one-dose screening, breast cancer BT-549; format: cell-based, human; details: 10 μM
[56] = tested on: T-47D; test: NCI one-dose screening, breast cancer T-47D; format: cell-based, human; details: 10 μM
[57] = tested on: MDA, -MB-435; test: NCI one-dose screening, breast cancer MDA, -MB-435; format: cell-based, human; details: 10 μM; listed under Melanoma
[58] = tested on: human tumor cell lines; test: NCI one-dose screening, Mean / Delta / Range of growth percent over all tested cell lines; format: cell-based; details: 10 μM

## O=C1c2ccccc2C(=O)c2c1cc(N1CCOCC1)c1nsnc21 [C10, 4-morpholino-anthra[2,1-c][1,2,5] thiadiazol-6,11-dione]
[1]
  IC50: 3.75 µM
[2]
  Growth Percent CCRF-CEM: 48.31%
[3]
  Growth Percent HL-60(TB): 66.73%
[4]
  Growth Percent MOLT-4: 47.64%
[5]
  Growth Percent SR: 68.92%
[6]
  Growth Percent RPMI-8226: 61.17%
[7]
  Growth Percent K562: 48.27%
[8]
  Growth Percent EKVX: 84.52%
[9]
  Growth Percent HOP-62: 60.63%
[10]
  Growth Percent HOP-92: 90.59%
[11]
  Growth Percent NCI-H226: 87.42%
[12]
  Growth Percent NCI-H23: 39.65%
[13]
  Growth Percent NCI-H322M: 98.00%
[14]
  Growth Percent NCI-H460: 88.64%
[15]
  Growth Percent NCI-H522: 79.03%
[16]
  Growth Percent A549/ATCC: 100.58%
[17]
  Growth Percent COLO 205: 104.19%
[18]
  Growth Percent HCC-2998: 107.48%
[19]
  Growth Percent HCT-116: 18.89%
[20]
  Growth Percent HCT-15: 55.97%
[21]
  Growth Percent KM12: 83.91%
[22]
  Growth Percent SF-268: 75.83%
[23]
  Growth Percent SF-295: 95.84. Percent
[24]
  Growth Percent SF-539: 88.62%
[25]
  Growth Percent SNB-19: 84.82%
[26]
  Growth Percent SNB-75: 51.11%
[27]
  Growth Percent U251: 59.35%
[28]
  Growth Percent LOX IMVI: 13.57%
[29]
  Growth Percent MALME-3M: 61.99%
[30]
  Growth Percent M14: 75.06%
[31]
  Growth Percent UACC-62: 62.43%
[32]
  Growth Percent UACC-257: 79.36%
[33]
  Growth Percent SK-MEL-2: 88.38%
[34]
  Growth Percent SK-MEL-28: 104.55%
[35]
  Growth Percent SK-MEL-5: 15.98%
[36]
  Growth Percent IGROV1: 54.88%
[37]
  Growth Percent OVCAR-3: 6.64%
[38]
  Growth Percent OVCAR-4: 28.69%
[39]
  Growth Percent OVCAR-8: 43.29%
[40]
  Growth Percent SK-OV-3: 104.65%
[41]
  Growth Percent 786-0: 109.16%
[42]
  Growth Percent CAKI-1: 61.73%
[43]
  Growth Percent A498: 88.30%
[44]
  Growth Percent SN12C: 71.73%
[45]
  Growth Percent TK-10: 131.28%
[46]
  Growth Percent UO-31: 53.93%
[47]
  Growth Percent RXF 393: 98.14%
[48]
  Growth Percent DU145: 68.98%
[49]
  Growth Percent PC-3: 56.59%
[50]
  Growth Percent MCF7: 55.12%
[51]
  Growth Percent HS 578T: 88.35%
[52]
  Growth Percent MDA-MB-231/ATCC: 39.16%
[53]
  Growth Percent MDA-MB-468: 45.59%
[54]
  Growth Percent NCI/ADR-RES: 43.58%
[55]
  Growth Percent BT-549: 93.78%
[56]
  Growth Percent T-47D: 60.04%
[57]
  Growth Percent MDA-MB-435: 0.52%
other
  melting point: 259 to 260 °C
[58]; delta over all cell lines
  Growth Percent Delta: 67.45%
[58]; mean over all cell lines
  Growth Percent Mean: 67.97%
[58]; range over all cell lines
  Growth Percent Range: 130.76%
